Laboratory results as given in patent US8580511B2, “Two-color fluorescent reporter for alternative pre-mRNA splicing” (The Regents of the University of California, priority 2006, dated 2013).

Tested on: exon 10 of the human tau gene
Assay: High-throughput small molecule screen with two-color fluorescent (GFP/RFP) splicing reporter in stable cell line
Format: cell-based
Conditions: not given
Source text: Exon 10 of the human tau gene (SEQ ID NO:9; see also, GenBank Accession No. AF027494) containing short stretches (about 50-100 nucleotides) of each of the flanking introns (i.e., intronic sequences from introns 9 and 10; see, e.g., Wang et al., J. Neurochem., 88:1078-1090 (2004)) was cloned into the EcoRI and BamHI restriction sites of the reporter intron (SEQ ID NO:2), which interrupts the start codon of the GFP open reading frame. The clone was linearized using DraIII and transfected into adherent mammalian cells.
In particular, the background was calculated by measuring the fluorescence of each channel after excitation with shorter wavelengths than the optimal for the reporter proteins. This measurement was corrected using data from non-reporter cells before being subtracted from the reporter-expressing cells as background. The following formulas describe the background subtraction procedure: […]
The two-color fluorescent reporter constructs described above carrying exon 10 of the human tau gene were used in high-throughput small molecule screens of a library of enzyme inhibitors (FIG. 6A) and a library of FDA approved drugs (FIG. 6B). The stable cell line was plated at density of 5000 cells per well in 384-well plates. HEK 293 cells to be used as the non-fluorescent control for background subtraction were plated in separate plates at the same density. Each library was applied to the plates and the cells were incubated for 16 hours. The media was removed and the cells were lysed in RIPA buffer (1% Nonidet P-40, 1% sodium deoxycholate, 0.1% SDS, 150 mM NaCl, 10 mM sodium phosphate (pH 7.2), 2 mM EDTA, 50 mM NaF, 5 mM beta-glycerophosphate). The fluorescence intensities were measured using an Analyst AD plate reader. The background was subtracted as described above and the logarithm at base 2 was calculated for the ratio of RFP to GFP fluorescence intensities (log-ratio) and the product of the GFP and RFP fluorescence intensities (log-expression) for each data point. The log-ratios were normalized by Lowess regression using the log-expression as an independent variable.

N#CC(=C(/N)Sc1ccccc1N)/C(C#N)=C(\N)Sc1ccccc1N [Compound U-0126] was tested. Which Log-ratio did it give?
Its Log-ratio is 0.44.

CN(C)C(=O)C(CCN1CCC(O)(c2ccc(Cl)cc2)CC1)(c1ccccc1)c1ccccc1 [LOPERAMIDE] was tested. Which Log-ratio did it give?
The Log-ratio was 0.72.

Same assay, conditions: log2 of RFP/GFP fluorescence, background subtracted, Lowess normalized; enzyme inhibitor library; 16 hours incubation; DMSO control −0.21

For CCCCCCCCCCCCCCCC(=O)OC(CC(=O)O)C[N+](C)(C)C.[Cl-] (racemic) [PALMITOYL-DL-CARNITINE CI], which Log-ratio is on record?
The Log-ratio was 0.61.

With Nc1ncnc2c1c(I)cn2[C@@H]1O[C@H](CO)[C@@H](O)[C@H]1O [5-IODOTUBERCIDIN] as the compound, how does the Log-ratio read?
Its Log-ratio is −1.03.

How did the Log-ratio turn out when CC(C)(C)c1cc(/C=C(\C#N)C(N)=S)cc(C(C)(C)C)c1O [AG-879] was run?
The Log-ratio was 1.59.

With CN(CCc1ccc(Cl)c(Cl)c1)CC(O)COc1ccc(NS(C)(=O)=O)cc1 (stereo not drawn) [AM 92016] as the compound, how does the Log-ratio read?
The Log-ratio was 0.44.

Which Log-ratio does the source give for CCCCc1oc2ccccc2c1C(=O)c1cc(I)c(OCCN(CC)CC)c(I)c1 [AMIODARONE] here?
Its Log-ratio is 0.63.

How did the Log-ratio turn out when CCCCC/C=C\C/C=C\C/C=C\C/C=C\CCCC(=O)N[C@@H](C)C(=O)O [Arachidonoyl alanine] was run?
The Log-ratio was 0.38.

Which Log-ratio does the source give for CC(C)COCC(CN(Cc1ccccc1)c1ccccc1)N1CCCC1 (stereo not drawn) [BEPRIDIL] here?
The Log-ratio was 0.74.

CC1(C(=O)O)C2CCC(O2)C1(C)C(=O)O (stereo not drawn) [CANTHARIDIC ACID] was tested. Which Log-ratio did it give?
The Log-ratio was −1.72.

How did the Log-ratio turn out when NCCNS(=O)(=O)c1cccc2cnccc12 [Compound H-9] was run?
Its Log-ratio is 0.61.

N/C(=N\C(=O)c1nc(Cl)c(N)nc1N)NCc1ccc(Cl)c(Cl)c1 [DICHLOROBENZAMIL] was tested. Which Log-ratio did it give?
Its Log-ratio is 1.75.

With CCCCC/C=C\C/C=C\C/C=C\CCCCCCC(=O)NCC(=O)O [Dihomo-gamma-linolenoyl glycine] as the compound, how does the Log-ratio read?
The Log-ratio was 0.49.

With Cc1cc(O)c2c(=O)c3c(O)cc(O)c4c5c(O)cc(O)c6c(=O)c7c(O)cc(C)c8c1c2c(c34)c(c78)c65 [HYPERICIN] as the compound, how does the Log-ratio read?
The Log-ratio was 1.14.

With COc1ccc(S(=O)(=O)N(CCO)c2ccccc2CN(C)C/C=C/c2ccc(Cl)cc2)cc1 [KN-93] as the compound, how does the Log-ratio read?
Its Log-ratio is 0.75.

Which Log-ratio does the source give for O=c1cc(N2CCOCC2)oc2c(-c3ccccc3)cccc12 [LY 294002] here?
Its Log-ratio is 0.85.

How did the Log-ratio turn out when O=S(=O)(c1cccc2c(I)cccc12)N1CCCNCC1 [ML-7] was run?
The Log-ratio was 0.72.

With O=S(=O)(c1cccc2c(Cl)cccc12)N1CCCNCC1 [ML-9] as the compound, how does the Log-ratio read?
Its Log-ratio is 0.52.

COC(=O)C1=C(C)NC(C)=C(C(=O)OCCN(C)Cc2ccccc2)C1c1cccc([N+](=O)[O-])c1 (stereo not drawn) [NICARDIPINE] was tested. Which Log-ratio did it give?
Its Log-ratio is 0.68.

C=C(C)[C@H]1O[C@H]2CC[C@@]3(C)[C@@](O)(CC[C@H]4[C@@H]5OC(C)(C)[C@H]6C[C@@H]7C(=C)Cc8c(Cl)cc9[nH]c(c5c9c8[C@@]76O)[C@@]43C)[C@@]23O[C@H]3[C@H]1O [PENITREM A] was tested. Which Log-ratio did it give?
The Log-ratio was 0.56.

O=c1[nH]c2ccccc2n1C1CCN(CCCC(c2ccc(F)cc2)c2ccc(F)cc2)CC1 [PIMOZIDE] was tested. Which Log-ratio did it give?
Its Log-ratio is 0.69.

With C=C[C@H]1C[N@@]2CC[C@H]1C[C@H]2[C@H](O)c1ccnc2ccc(OC)cc12 [QUININE] as the compound, how does the Log-ratio read?
The Log-ratio was 0.43.

Which Log-ratio does the source give for CC(=O)c1c(O)c(C)c(O)c(Cc2c(O)c3c(c(C(=O)/C=C/c4ccccc4)c2O)OC(C)(C)C=C3)c1O [ROTTLERIN] here?
Its Log-ratio is 1.27.

How did the Log-ratio turn out when Oc1ccc(-c2nc(-c3ccncc3)c(-c3ccc(F)cc3)[nH]2)cc1 [SB-202190] was run?
The Log-ratio was 0.46.

For CC(C)(C)c1cc(C=C(C#N)C#N)cc(C(C)(C)C)c1O [TYRPHOSTIN 9], which Log-ratio is on record?
Its Log-ratio is 1.69.

For N#C/C(=C\c1ccc(O)c(O)c1)C(N)=S [TYRPHOSTIN 47], which Log-ratio is on record?
The Log-ratio was 0.48.

With COC[C@H]1OC(=O)c2coc3c2[C@@]1(C)C1=C(C3=O)[C@@H]2CCC(=O)[C@@]2(C)C[C@H]1OC(C)=O [WORTMANNIN] as the compound, how does the Log-ratio read?
Its Log-ratio is 1.37.
